Here are results for 14 compounds from PubChem BioAssay (NCI).

Test systems include KM12 colon; IGROV1 ovarian; SNB-75 CNS; HCC-2998 colon; A549 NSCLC; MCF7 breast; NCI-H226 lung; NCI-H460 lung; SK-MEL-2 melanoma; MDA-N.
Holding throughout (assay): NCI tumour cell line growth inhibition, 48 h

Structures are written as SMILES. Where “and” joins values, the source holds several entries; their conditions need not be identical. Identical values can stand only once.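 Tested at 5 concentrations; 48 h exposure; 96-well plates; endpoints linearly interpolated, else capped at highest concentration. Abbreviation: GI50, concentration required for 50% inhibition of growth. TGI is the concentration that stops growth completely.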

In the case of `O=C1C(Br)=CC2([N+](=O)[O-])CCNc3c(O)c4c5c(c3C2=C1Br)=NCCC=5C=N4` (centres undefined), the TGI in the test on KM12 colon came to 14.8 µM; with IGROV1 ovarian it was 4.27 µM; in the test on SNB-75 CNS it was 20.5 µM; in the test with HCC-2998 colon it was 13.2 µM; with A549 NSCLC, 16.3 µM; in the test with MCF7 breast, 1.72 µM. Moreover, the TGI came to 6.79 µM with NCI-H226 lung, 12.1 µM with NCI-H460 lung and 3.15 µM with SK-MEL-2 melanoma.

`CCOC(=O)/C(O)=C1\C(=O)N(C)C(=O)C1c1ccc(OC)c(OC)c1` (centres undefined): the TGI in the test with KM12 colon, with IGROV1 ovarian, in the test with SNB-75 CNS, in the test with HCC-2998 colon, in the test on A549 NSCLC and in the test on MCF7 breast was > 100 µM in each case. Also, the TGI with NCI-H226 lung, in the test with NCI-H460 lung and with SK-MEL-2 melanoma was > 100 µM each time.

In the case of `S=C1c2ccccc2NC(=NC2CCCC2)C2CSCN12` (centres undefined), the TGI with KM12 colon, in the test with IGROV1 ovarian, with HCC-2998 colon, in the test on A549 NSCLC, in the test with MCF7 breast and in the test with NCI-H226 lung was > 100 µM throughout. The TGI in the test on NCI-H460 lung and in the test on SK-MEL-2 melanoma was > 100 µM each time.

As for `CC(C)C[C@H](NC(=O)[C@H](Cc1cccc2ccccc12)NC(=O)N1CCOCC1)B(O)O`, the GI50 in the test on KM12 colon was 0.00149 µM; with IGROV1 ovarian, 0.00408 µM; with SNB-75 CNS it was 0.000622 µM; with HCC-2998 colon, 0.00158 µM; with A549 NSCLC it was 0.00609 µM; in the test on MCF7 breast, 0.000351 µM. In addition, the GI50 was 0.0151 µM in the test with NCI-H460 lung and 0.00068 µM in the test with SK-MEL-2 melanoma. The TGI in the test with KM12 colon was 0.00376 µM; in the test with IGROV1 ovarian it was 0.0485 µM; in the test on SNB-75 CNS, 0.00348 µM; in the test on HCC-2998 colon it was 0.00302 µM; in the test on A549 NSCLC, 0.267 µM; in the test with MCF7 breast, 0.139 µM. Moreover, the TGI in the test on NCI-H226 lung is 0.00049 µM; with NCI-H460 lung, 0.0542 µM and 0.0423 µM; in the test with SK-MEL-2 melanoma it was 0.00251 µM and < 0.0159 µM.

As for `CC(=O)O[C@H]1CC[C@@]2(C)C(=CC[C@@H]3[C@@H]2CC[C@]2(C)C(c4cccnc4)=CC[C@@H]32)C1`, the GI50 is 3.73 µM in the test on KM12 colon; 26.7 µM in the test with IGROV1 ovarian; 2.6 µM in the test with SNB-75 CNS; 14 µM in the test on HCC-2998 colon; 10.4 µM in the test on A549 NSCLC; 4.84 µM in the test on MCF7 breast. Further, the GI50 is 17.7 µM in the test with NCI-H226 lung, 5.91 µM in the test with NCI-H460 lung and > 100 µM in the test with SK-MEL-2 melanoma. For the same compound, the TGI with KM12 colon was > 100 µM; in the test with IGROV1 ovarian, > 100 µM; with SNB-75 CNS it was 15.6 µM; in the test with HCC-2998 colon, > 100 µM; in the test on A549 NSCLC, > 100 µM; in the test with MCF7 breast, > 100 µM. For the same compound, the TGI in the test on NCI-H226 lung, in the test on NCI-H460 lung and with SK-MEL-2 melanoma was > 100 µM in each case.

With `CCCCOC(=O)CNC(=O)OCCCCC#CC#CCCCCOC(=O)NCC(=O)OCCCC`, the TGI in the test on KM12 colon, in the test with IGROV1 ovarian, in the test with SNB-75 CNS, in the test on HCC-2998 colon, with A549 NSCLC and in the test on NCI-H226 lung was > 100 µM in each case. For the same compound, the TGI with NCI-H460 lung is > 100 µM.

Consider `COC(=O)Cc1ccc2c(c1)Sc1ccc(CC(=O)OC)cc1N2C`, for which the TGI in the test with KM12 colon was > 100 µM; in the test with IGROV1 ovarian, > 100 µM; with SNB-75 CNS, > 93.4 µM; with HCC-2998 colon it was > 100 µM; in the test on A549 NSCLC it was > 90.3 µM; in the test on MCF7 breast, > 63.5 µM. In addition, the TGI in the test with NCI-H226 lung is > 93.5 µM; in the test on NCI-H460 lung it was > 100 µM; with SK-MEL-2 melanoma it was > 100 µM.

In the case of `Cc1ccc2c(=O)cc(-c3csc4ccccc34)[nH]c2n1`, the TGI in the test with KM12 colon was 0.86 µM; with IGROV1 ovarian, 16.7 µM; in the test on MDA-N, < 0.01 µM; with SNB-75 CNS, > 51.2 µM; in the test with A549 NSCLC, 19.5 µM; in the test on MCF7 breast, 18.1 µM. The TGI in the test with NCI-H226 lung was 0.0863 µM; with NCI-H460 lung, > 33.9 µM.

As to `CCCCCc1cc(OC(=O)c2c(O)cc(OC)cc2CCCCC)cc(O)c1C(=O)O`, the TGI with KM12 colon was 34 µM; in the test with IGROV1 ovarian, 32.5 µM; in the test on SNB-75 CNS, 32.5 µM; in the test on HCC-2998 colon, 29 µM; with A549 NSCLC, 35.6 µM; with NCI-H460 lung, 31.3 µM. This compound also registered a TGI in the test with SK-MEL-2 melanoma of 31.6 µM.

Turning to `Cc1ccc(C)n2c1nc1ccc3ccccc3c12`, the TGI is > 100 µM with KM12 colon; > 100 µM with IGROV1 ovarian; > 100 µM in the test with MDA-N; 86 µM in the test with SNB-75 CNS; > 100 µM in the test with HCC-2998 colon; > 100 µM in the test with A549 NSCLC. Further, the TGI in the test with MCF7 breast, in the test on NCI-H226 lung and in the test on NCI-H460 lung was > 100 µM throughout.

In the case of `C=CCC(C)C12CCNC(Cc3ccc(O)cc31)C2C` (centres undefined), the TGI with KM12 colon, in the test on IGROV1 ovarian, in the test with SNB-75 CNS, in the test with HCC-2998 colon, with A549 NSCLC and with MCF7 breast was > 100 µM in each case. Also, the TGI with NCI-H226 lung and in the test on NCI-H460 lung was > 100 µM throughout.

As for `CN(C)c1ccc(/C=N/Nc2nc3ccccc3c(=O)n2-c2ccccc2)cc1`, the TGI was > 100 µM in the test with KM12 colon; > 100 µM in the test on IGROV1 ovarian; > 100 µM with MDA-N; 57.5 µM in the test on SNB-75 CNS; > 100 µM in the test with HCC-2998 colon; > 100 µM in the test with A549 NSCLC. Further, the TGI in the test on MCF7 breast, in the test on NCI-H226 lung and in the test with NCI-H460 lung was > 100 µM throughout.

As for `CC(=O)C(C(C)=O)=C1CCCC(O)O1` (centres undefined), the TGI in the test on KM12 colon, in the test with IGROV1 ovarian, with SNB-75 CNS, in the test on HCC-2998 colon, in the test on A549 NSCLC and in the test with MCF7 breast was > 100 µM each time. Also, the TGI with NCI-H226 lung and with NCI-H460 lung was > 100 µM each time.

On to `CSc1nc(NC2CCCC2)c2cc[nH]c2n1`, for which the TGI with KM12 colon, in the test with IGROV1 ovarian, in the test with MDA-N, in the test on HCC-2998 colon, in the test on A549 NSCLC and in the test on MCF7 breast was > 100 µM each time. The TGI with NCI-H226 lung and in the test with NCI-H460 lung was > 100 µM each time.
